Test results published in US9150505B2, “Prophylactic or therapeutic agent for diabetes or obesity” (AJINOMOTO CO., INC., priority 2010, dated 2015).

Assays:
NCI-H716 cells [1] = assay: Promotion of GLP-1 secretion in NCI-H716 cells; format: cell-based, human; details: 30 minutes at 37° C., buffer assumed to be 1.0
Procedure: Human appendix-derived cell line NCI-H716 (ATCC No CCL-251) was cultured in a 10% FBS-containing DMEM/HamF-12 medium at 37° C. in the presence of 5% CO2. NCI-H716 cells were seeded in a poly-D-lysine-coated 96-well plate at 100,000 cells/well and cultured for two days. Prior to sample addition, wells were washed with Hepes buffer (20 mM Hepes, 146 mM NaCl, 5 mM KCl, 1.5 mM CaCl2, 1 mM MgSO4, 5.5 mM D-glucose, 0.2% BSA, pH 7.4). Fifty μl of a sample solution dissolved in the same buffer was added and incubated at 37° C. for 30 minutes. The above-described compounds in Example 6 (Compound 1) (10 mM), Example 48 (Compound 2) (5 mM) and Example 14 (Compound 3) (2 mM) were used as the samples. In addition, a Hepes buffer was used as a control. After collecting the supernatant, the cells were precipitated by centrifugation (5,000×g, 1 min.) to collect the supernatant thereof. GLP-1 level in the supernatant was determined as described below according to a quantitative method for GLP-1 that uses GLP-1 receptor gene expression cells.
According to a routine method (Lopez de Maturana R, Willshaw A, Kuntzsch A, Rudolph R, Donnelly D. J Biol Chem. 2003 Mar. 21; 278 (12):10195-200), human GLP-1 receptor gene (Nucleotide sequence 1) was integrated into pcDNA3.1 to prepare human GLP-1 receptor gene expression plasmid hGLP-1R/pcDNA3.1. Moreover, chimeric gene (Nucleotide sequence 2) of human Gα15 gene and human gustducin gene was integrated into pcDNA3.1 to prepare G protein expression plasmid Gα15-gust/pcDNA3.1. […] After 24 hours of cultivation in a CO2 incubator, changes in the fluorescence intensity were determined starting immediately after sample addition according to the Ca^2+ fluorescence indicator FLIPR Calcium 4 Assay Kit protocol (Molecular Devices) using FlexStation (Molecular Devices). Concentration dependency of human GLP-1 (7-36 Amide; Peptide Institute) with respect to the changes in the fluorescence intensity was determined and used as a standard curve for quantitating the sample. […]

normal mice (C57BL/6J) = assay: Effects on gastric emptying using mouse (phenol red method); format: in vivo; details: 2.4 nmol/kg subcutaneously, 24 h fasted mice, phenol red 15 min after drug, stomach resected 20 min later; vehicle 82.4 ± 7.0%
Procedure: A dosing vehicle (distilled water) or 3 mg/kg of the compound in Example 6 (Compound 1) was orally administered in a forced manner using a mouse sonde to normal mice (C57BL/6J, 7-week-old) after 24 hours of fasting. As positive controls, a group subcutaneously injected with Exendin-4 (Sigma) (2.4 nmol/kg) that was known to have an effect of suppressing gastric emptying was also prepared. 10 ml/kg of dosing vehicle was also orally administered to the mice of the Exendin-4 group. Fifteen minutes after drug administration, phenol red solution (0.5 mg/ml phenol red+1.5% methylcellulose+distilled water) was orally administered in a forced manner at a volume of 5 ml/kg. After another 20 minutes, the stomach was resected from each mouse and phenol red remaining in the stomach was extracted in 0.1N NaOH solution. Absorbance of the extracted solution was determined at 560 nm to quantitate the amount of remaining phenol red (S). While the amount of phenol red (C) extracted from the stomach resected immediately after the administration of phenol red was assumed to be 100%, the amount of remaining phenol red […] with respect to C was calculated, as a gastric emptying volume (%), based on the following expression. Gastric emptying volume(%)=(1−(S/C))×100

NCI-H716 cells [2] = assay: Promotion of CCK secretion in NCI-H716 cells; format: cell-based, human
Procedure: Human appendix-derived cell line NCI-H716 (ATCC No CCL-251) was cultured in a 10% FBS-containing DMEM/HamF-12 medium at 37° C. in the presence of 5% CO2. NCI-H716 cells were seeded in a poly-D-lysine-coated 24-well plate at 600,000 cells/well and cultured for two days. Prior to sample addition, wells were washed with Hepes buffer (20 mM Hepes, 146 mM NaCl, 5 mM KCl, 1.5 mM CaCl2, 1 mM MgSO4, 5.5 mM D-glucose, 0.02% BSA, pH 7.4). 300 μl of a sample solution dissolved in the same buffer was added and incubated at 37° C. for 30 minutes. Compound 1 in Example 6 (2 mM) and Compound 2 in Example 48 (1 mM) were used as the samples. In addition, a Hepes buffer was used as a control. After collecting the supernatant, the cells were precipitated by centrifugation (5,000×g, 1 min.) to collect the supernatant thereof, which was lyophilized in Speed Vac Concentrator (SAVANT) and dissolved by addition of 60 μl of water. CCK level in the solution was determined using Enzyme immuno assay kit (EK-069-04; PHENOIX PHARMACEUTICALS).

Compound: Cc1c(Cl)cc(S(=O)(=O)O)cc1NC(=O)NC[C@H](N)C(=O)O [Example 14, (2S)-2-amino-3-{[(3-chloro-2-methyl-5-sulfophenyl)carbamoyl]amino}propanoic acid]
- Relative secretion volumes (GLP-1) (NCI-H716 cells [1]; 2 mM): 3.54

Compound: Exendin-4: Positive control (Sigma), known to have an effect of suppressing gastric emptying
- Gastric emptying volume (normal mice (C57BL/6J)): 51.2 ± 4.2% (*)

Compound: Cc1c(Cl)cc(NC(=S)NC[C@H](N)C(=O)O)cc1S(=O)(=O)O [Example 48, (2S)-2-amino-3-{[(3-chloro-4-methyl-5-sulfophenyl)carbamothioyl]amino}propanoic acid]
- Relative secretion volumes (GLP-1) (NCI-H716 cells [1]; 5 mM): 15.42
- Relative secretion volumes (CCK) (NCI-H716 cells [2]; 1 mM, 30 minutes at 37° C., buffer assumed to be 1.0): 2.22
- effect of promoting CCK secretion (NCI-H716 cells [2]; result in words): confirmed to have an effect of promoting CCK secretion
